Calls of active or inactive are those of the source. No rule for the calls is given here.
Experiment: Cytotoxicity activity against human HepG2 cells assessed by CellTiter-Glo luminescent cell viability assay.
Format: toxicity, cell-based
Design: assay stage confirmatory assay, source tissue liver
Conditions: HepG2 cells, read-out: IC50 relative

Compound	CC50
Cc1[nH]c2ccccc2c1CN1CCN(c2ccccn2)CC1	12.9 µM (inactive)
CSc1cccc(NS(=O)(=O)c2ccc3c(c2)CCN3C(C)=O)c1	6.6 µM (active)
CC1CCC(C(C)C)C(OC(=O)Cn2c(-c3ccc(Br)cc3)[n+](C)c3ccccc32)C1 (stereo not drawn)	4.7 µM (active)
Cc1ccc(C)c(C(=O)CN2C3=NCCCN3c3ccccc32)c1	9.6 µM (active)
CCOCc1ccc(O)c2ncccc12	5.6 µM (active)
O=S(=O)(c1ccccc1)N1CCN(c2ccc(Nc3ccncc3)nn2)CC1	16.9 µM (inactive)
CCOC(=O)C(C)Oc1cccc2c(=O)n(CC(=O)Nc3ccc4c(c3)OCCO4)ccc12 (stereo not drawn)	50 µM (inactive)
CCOC(=O)C1CCCN(C(=O)C(=O)c2c[nH]c3ccccc23)C1 (stereo not drawn)	9.8 µM (active)
COc1ccc(Nc2nccc(-c3ccncc3)n2)cc1	4.7 µM (active)
O=C1CCCN1c1ccc(S(=O)(=O)Nc2cccc3cccnc23)cc1	9.7 µM (active)
COc1cc(OC)cc(-c2nnc(Nc3nc4c(F)cccc4s3)o2)c1	27.8 µM (inactive)
CN(C)c1nc(Nc2ccc(O)cc2)nc2ccccc12	9.7 µM (active)
CN(C)c1nc(Nc2cccc(O)c2)nc2ccccc12	12.7 µM (active)
CC1CCN(CCNC(=O)c2c(O)c3sccc3n(Cc3ccccc3)c2=O)CC1	22.3 µM (inactive)
Oc1cccc2ccc(Nc3ccccn3)nc12	0.7 µM (active)
Cc1ccc(Cl)cc1N1CCN(c2cc([C@H]3C[C@@H](O)C3)ncn2)CC1	9.5 µM (active)
CN(C)CCCN(CCCN(C)C)CC(c1ccccc1)c1ccccc1	7.2 µM (active)
COc1ccc(-c2ccc(CNCCNCCO)o2)cc1Cl	11.4 µM (active)
Cc1ccn(-c2cc(N3CCN(C(=O)Nc4ccc5c(c4)OCCO5)CC3)ncn2)n1	10.7 µM (active)
CC1CCN(CC(O)COc2ccccc2C(C)(C)C)CC1 (stereo not drawn)	9.6 µM (active)
CCc1ccc(S(=O)(=O)N2CCN(c3cc(-n4ccc(C)n4)ncn3)CC2)cc1	6.7 µM (active)
O=S(=O)(Nc1cccc2cccnc12)c1ccc2c(c1)OCCO2	10.4 µM (active)
CCOc1ccccc1CN1CCN(Cc2ccc(C)cc2)CC1CCO (stereo not drawn)	12.9 µM (inactive)
CCN1CCN(CCOc2ccc3ccccc3c2Cl)CC1	8 µM (active)
COc1cccc(-c2ccc(=O)n(CC(=O)Nc3ccccn3)n2)c1	6.8 µM (active)

Compound	CC50
Cc1cc(OCC(O)CN2CCN(C)CC2)cc(C)c1Cl (stereo not drawn)	13.9 µM (inactive)
Cc1ccc(S(=O)(=O)N2CCN(c3cc(-n4ccnc4C)ncn3)CC2)cc1C	5.1 µM (active)
O=S(=O)(c1ccc(F)cc1)N1CCN(c2ccc(Nc3ccncc3)nn2)CC1	13.6 µM (inactive)
O=C(Nc1n[nH]c(C2CC2)n1)C1CC(=O)N(c2ccc(Br)cc2)C1 (stereo not drawn)	1.8 µM (active)
CC1CC(C)CN(CCCNC(=O)Cn2nc(-c3ccc(Cl)cc3)ccc2=O)C1 (stereo not drawn)	14.5 µM (inactive)
CC(CNC(=O)C1CCN(C)CC1)Cc1cccc2ccccc12 (stereo not drawn)	11.2 µM (active)
Cc1csc(NC(=O)CC[C@@H]2NC(=O)N(CCc3cccc(F)c3)C2=O)n1	8.9 µM (active)
O=c1[nH]c2ccccc2n1C1CCN(c2nccc(-c3cccnc3)n2)CC1	11.2 µM (active)
c1ccc(-c2ccc(CNC3CN4CCC3CC4)cc2)cc1 (stereo not drawn)	5.6 µM (active)
CN(C)CCCN(CCCN(C)C)CC1=CCC2CC1C2(C)C (stereo not drawn)	9.6 µM (active)
CC(C)c1cc(Br)ccc1OCCCN1CCN(C)CC1	4.1 µM (active)
CCn1c(Oc2cccc3cccnc23)nc2c1c(=O)n(C)c(=O)n2C	2.9 µM (active)
CNc1nc(Nc2cccc(NC(C)=O)c2)nc2ccccc12	5.2 µM (active)
COc1ccc(CCN2C(=O)N(C)C(=O)C23CCN(Cc2cccc(OC)c2)CC3)cc1	6.6 µM (active)
COc1cc(CN2CCN(c3ccccc3C)CC2)ccc1O	8 µM (active)
CCCc1cc(N2CCN(CCO)CC2)n2ncc(-c3ccccc3)c2n1	11.5 µM (active)
Cc1ccn(-c2cc(N3CCN(C(=O)Nc4ccc5c(c4)OCO5)CC3)ncn2)n1	15.7 µM (inactive)
CCCc1cc(NCCCN2CCOCC2)n2ncc(-c3ccccc3)c2n1	10.8 µM (active)
CC1CN(CCS(=O)(=O)c2ccc(Oc3ccc(S(=O)(=O)CCN4CC(C)OC(C)C4)cc3)cc2)CC(C)O1 (stereo not drawn)	6.1 µM (active)
CN(C)CCNCc1cccc(OCc2ccc(F)cc2)c1	15 µM (inactive)
CN1CCN(CCCCOc2ccc(-c3ccccc3)cc2)CC1	4 µM (active)
Cc1ccccc1OCC(=O)Nc1ccc(OC2CCN(C)CC2)cc1	13.6 µM (inactive)
COc1ccc(OC)c(S(=O)(=O)Nc2ccc3nc(S(C)(=O)=O)sc3c2)c1	6.9 µM (active)
Cc1ccc(S(=O)(=O)N2CCN(c3ccc(Nc4ccncc4)nn3)CC2)cc1	10.4 µM (active)
COc1cccc(-c2noc(-c3ccc(N4CCN(C(C)C)CC4)nc3)n2)c1OC	13.1 µM (active)

Compound	CC50
CC(C)c1ccc(CN(CCCN(C)C)CCCN(C)C)cc1	8.8 µM (active)
Cc1cc(F)ccc1N1CCC(N[C@@H]2CCOC[C@H]2OCC2CC2)CC1	15.6 µM (inactive)
COc1ccc(C(O)CN2CCN(c3cc(C)ccc3C)CC2)cc1OC (stereo not drawn)	10.2 µM (active)
CCN1CCN(CC(O)COc2cc(C)c(Cl)c(C)c2)CC1 (stereo not drawn)	12.8 µM (inactive)
Cc1cc(OCC(O)CN2CCCCC2)cc(C)c1Cl (stereo not drawn)	10.5 µM (active)
CCc1ccc(NC(=O)N2CCN(c3cc(-n4ccc(C)n4)ncn3)CC2)cc1	46.2 µM (inactive)
CCCCn1c(=O)c(C(=O)Nc2ccc(O)cc2)c(O)c2ccccc21	23 µM (inactive)
C[C@@H](C(=O)Nc1c2c(nn1C)CSC2)N1Cc2ccccc2C1=O	15.8 µM (inactive)
CCc1cccc(NC(=O)N2CCN(c3ccnc(N4CCCC4)n3)CC2)c1	13.5 µM (inactive)
CS(=O)(=O)N1CCc2ccc(NC(=O)Nc3ccc(F)cc3F)cc21	24.5 µM (inactive)
Cc1cc(NC(=O)CSC(C)C)cc2sc(N)nc12	13.7 µM (active)
COc1cc(CNCCN(C)C)ccc1OCc1ccc(F)cc1	13.1 µM (active)
CN(c1ccc(C(=O)Nc2ccc(S(=O)(=O)N3CCOCC3)cc2)cc1)S(=O)(=O)c1ccccc1	2.9 µM (active)
COc1cccc(NC(=O)N2CCN(c3ccnc(N4CCCCC4)n3)CC2)c1	11.5 µM (active)
O=C(Nc1ccc2c(c1)OCCO2)N1CCN(c2ccnc(N3CCCCC3)n2)CC1	12.1 µM (active)
CN1CCN(C)C(CNc2ncc(F)c(N(C)C)n2)C1 (stereo not drawn)	50 µM (inactive)
Nc1nc(Nc2ccc3c(c2)OCCO3)nc2ccccc12	8.7 µM (active)
CCOc1cc(CNCC(C)O)ccc1OCc1ccc(C)cc1 (stereo not drawn)	9.4 µM (active)
CC1(C)CC(=O)c2cn(-c3ccccc3)c(=O)c(C(=O)Nc3cccnc3)c2C1	9.2 µM (inactive)
O=C(Nc1nc(-c2ccc(S(=O)(=O)N3CCOCC3)cc2)cs1)c1cccs1	5.3 µM (active)
Cc1cc(OCCOCCN2CCN(C)CC2)c(Cl)c(C)c1Cl	5.3 µM (active)
FC(F)(F)c1cccc(Nc2nc(-c3ccccc3)nc3ncccc23)c1	41.6 µM (inactive)
COc1ccc(Nc2nccc(-c3cccnc3)n2)cc1	9.9 µM (active)
